ChEMBL document CHEMBL5365467 (J Med Chem, 2023)

Assays:
VCaP = assay: Antitumor activity against human VCaP cells xenografted in CB17-SCID mouse assessed as tumor growth inhibition at 20 mg/kg, po administered for 21 days; settings: 504 h, read-out: TGI
[1] = Half life in Sprague-Dawley rat at 2 mg/kg, iv measured upto 24 hrs by LC-MS/MS analysis; settings: in vivo
[2] = Clearance in Sprague-Dawley rat at 2 mg/kg, iv measured upto 24 hrs by LC-MS/MS analysis; settings: in vivo
LNCaP = assay: Growth inhibition in human LNCaP cells assessed as reduction in cell viability
[3] = Metabolic stability in mouse liver microsome assessed as half life measured upto 45 mins in presence of NADPH by LC-MS/MS analysis; type: ADME; settings: liver microsomes
[4] = Metabolic stability in non human primate liver microsome assessed as half life measured upto 45 mins in presence of NADPH by LC-MS/MS analysis; type: ADME; settings: primates, liver microsomes
[5] = Metabolic stability in rat liver microsome assessed as parent compound remaining measured at 120 mins in presence of NADPH by LC-MS/MS analysis; type: ADME; settings: liver microsomes, read-out: Stability
[6] = Metabolic stability in non human primate liver microsome assessed as parent compound remaining measured at 120 mins in presence of NADPH by LC-MS/MS analysis; type: ADME; settings: primates, liver microsomes, read-out: Stability
[7] = Metabolic stability in human liver microsome assessed as parent compound remaining measured at 120 mins in presence of NADPH by LC-MS/MS analysis; type: ADME; settings: liver microsomes, read-out: Stability
[8] = Metabolic stability in non human primate hepatocyte assessed as half life measured upto 120 mins by LC-MS/MS analysis; type: ADME, cell-based; settings: primates, hepatocytes
[9] = Metabolic stability in human hepatocyte assessed as half life measured upto 120 mins by LC-MS/MS analysis; type: ADME, cell-based; settings: hepatocytes
[10] = Metabolic stability in mouse plasma assessed as half life measured after 2 hrs by LC-MS/MS analysis; type: ADME, cell-free
[11] = Metabolic stability in rat plasma assessed as half life measured after 2 hrs by LC-MS/MS analysis; type: ADME, cell-free
[12] = Metabolic stability in dog plasma assessed as parent compound remaining measured after 120 mins by LC-MS/MS analysis; type: ADME, cell-free, Canis lupus familiaris; settings: read-out: Stability
[13] = Half life in ICR mouse at 2 mg/kg, iv measured upto 24 hrs by LC-MS/MS analysis; type: ADME, organism-based; settings: in vivo
[14] = AUC (0 to t) in ICR mouse at 2 mg/kg, iv measured upto 24 hrs by LC-MS/MS analysis; type: ADME, organism-based; set-up: dose 2 mg/kg, time < 24 hrs, route iv; settings: in vivo
[15] = Tmax in ICR mouse at 5 mg/kg, po measured upto 24 hrs by LC-MS/MS analysis; type: ADME, organism-based; settings: in vivo
[16] = AUC (0 to t) in ICR mouse at 5 mg/kg, po measured upto 24 hrs by LC-MS/MS analysis; type: ADME, organism-based; set-up: dose 5 mg/kg, time < 24 hrs, route po; settings: in vivo
[17] = Volume of distribution at steady state in Beagle dog at 1 mg/kg, iv measured upto 24 hrs by LC-MS/MS analysis; type: ADME, organism-based, Canis lupus familiaris; settings: in vivo, read-out: Vdss
[18] = Clearance in Beagle dog at 1 mg/kg, iv measured upto 24 hrs by LC-MS/MS analysis; type: ADME, organism-based, Canis lupus familiaris; settings: in vivo
[19] = AUC (0 to t) in Beagle dog at 10 mg/kg, po measured upto 24 hrs by LC-MS/MS analysis; type: ADME, organism-based, Canis lupus familiaris; set-up: time < 24 hrs, dose 10 mg/kg, route po; settings: in vivo
[20] = AUC (0 to t) in non human primate at 1 mg/kg, iv measured upto 24 hrs by LC-MS/MS analysis; type: ADME, organism-based; set-up: dose 1 mg/kg, time < 24 hrs, route iv; settings: primates, in vivo
[21] = target: Protein cereblon/Androgen receptor (Homo sapiens, UniProt P10275+Q96SW2, L702H/T878A); settings: mda-pca-2b
Protein cereblon/Androgen receptor, sequence (P10275 whole entry L702H/T878A, stated change not applied): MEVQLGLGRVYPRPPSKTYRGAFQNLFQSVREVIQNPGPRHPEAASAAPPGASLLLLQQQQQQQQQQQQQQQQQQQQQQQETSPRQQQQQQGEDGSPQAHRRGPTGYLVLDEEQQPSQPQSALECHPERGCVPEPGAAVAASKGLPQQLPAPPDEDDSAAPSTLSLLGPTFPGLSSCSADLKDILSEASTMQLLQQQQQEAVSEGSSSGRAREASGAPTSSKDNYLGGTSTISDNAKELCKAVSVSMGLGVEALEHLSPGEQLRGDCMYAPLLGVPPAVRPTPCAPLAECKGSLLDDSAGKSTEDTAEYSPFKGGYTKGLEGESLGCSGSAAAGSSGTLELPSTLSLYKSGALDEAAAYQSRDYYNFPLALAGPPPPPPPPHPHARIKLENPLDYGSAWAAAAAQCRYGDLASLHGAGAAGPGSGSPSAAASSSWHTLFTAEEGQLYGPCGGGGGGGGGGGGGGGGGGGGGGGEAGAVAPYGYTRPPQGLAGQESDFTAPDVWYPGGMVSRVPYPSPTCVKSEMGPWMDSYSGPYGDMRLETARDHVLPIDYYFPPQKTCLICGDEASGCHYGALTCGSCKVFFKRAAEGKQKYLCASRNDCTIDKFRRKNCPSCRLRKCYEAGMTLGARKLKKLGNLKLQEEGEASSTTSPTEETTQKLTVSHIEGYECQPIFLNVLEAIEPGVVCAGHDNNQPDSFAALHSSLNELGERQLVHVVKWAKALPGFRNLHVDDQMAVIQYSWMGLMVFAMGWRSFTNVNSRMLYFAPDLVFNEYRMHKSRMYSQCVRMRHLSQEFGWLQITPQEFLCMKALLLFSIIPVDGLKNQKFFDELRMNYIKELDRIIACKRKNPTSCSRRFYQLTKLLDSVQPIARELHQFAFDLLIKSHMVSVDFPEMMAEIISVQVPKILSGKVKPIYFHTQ
Protein cereblon/Androgen receptor, sequence (Q96SW2 whole entry, stated change not applied): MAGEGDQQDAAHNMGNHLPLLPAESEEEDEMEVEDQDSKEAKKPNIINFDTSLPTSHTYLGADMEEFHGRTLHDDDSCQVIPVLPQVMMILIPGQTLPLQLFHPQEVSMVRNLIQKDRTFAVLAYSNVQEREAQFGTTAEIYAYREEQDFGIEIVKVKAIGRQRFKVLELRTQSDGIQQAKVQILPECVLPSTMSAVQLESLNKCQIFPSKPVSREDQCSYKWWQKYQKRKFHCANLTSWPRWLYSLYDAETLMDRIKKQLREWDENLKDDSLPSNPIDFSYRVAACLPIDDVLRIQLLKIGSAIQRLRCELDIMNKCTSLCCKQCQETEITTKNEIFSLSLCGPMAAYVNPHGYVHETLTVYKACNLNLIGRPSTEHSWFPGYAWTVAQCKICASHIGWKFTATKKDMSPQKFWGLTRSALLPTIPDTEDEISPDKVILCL

C[C@H]1CC2(CCN(c3ccc(C(=O)N4CCC(CN5Cc6cc7c(cc6C5)C(=O)N(C5CCC(=O)NC5=O)C7=O)CC4)cc3)CC2)CN1c1ccc(C#N)c(Cl)c1 (stereo partly drawn)
inhibition in vivo at 20 mg/kg (VCaP): 68%
half-life at 24 h [1]: 4.5 h
clearance at 24 h [2]: 6 mL/min/kg
IC50 (LNCaP): 2.8 nM
half-life at […] [3]: > 1 h
half-life at […] [4]: > 1 h
remaining at 2 h [5]: 87%
remaining at 2 h [6]: 82%
remaining at 2 h [7]: 84%
half-life [8]: > 2 h
half-life [9]: > 2 h
half-life [10]: > 2 h
half-life [11]: > 2 h
remaining at 2 h [12]: 71%
half-life [13]: 4.3 h
AUC(0-t) at 24 h [14]: 50500 ng·h/mL
Tmax [15]: 2 h
AUC(0-t) at 24 h [16]: 85200 ng·h/mL
Vd [17]: 1.74 L/kg
clearance [18]: 3.17 mL/min/kg
AUC(0-t) at 24 h [19]: 15200 ng·h/mL
AUC(0-t) at 24 h [20]: 5170 ng·h/mL
DC50 [21]: 8 nM
